In paper PMC6934184, “Selective DNA-PKcs inhibition extends the therapeutic index of localized radiotherapy and chemotherapy” (The Journal of Clinical Investigation, 2019):

Biological target: T1, MARK1 (MARK) (Homo sapiens, UniProt Q9P0L2)
T1 construct: purchased Thermo Fisher Scientific (Life Technologies) SelectScreen
Assay: SelectScreen Z'LYTE
Type: biochemical
Procedure, shortened: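 NU5455 was profiled across the SelectScreen Broad panel of kinase activity and binding assays. Z'LYTE reactions such as CSF1R ran at apparent Km ATP, while the Adapta CAMK1 assay used ATP listed as 10. Values are given as percent.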

T1 sequence (Q9P0L2 whole entry): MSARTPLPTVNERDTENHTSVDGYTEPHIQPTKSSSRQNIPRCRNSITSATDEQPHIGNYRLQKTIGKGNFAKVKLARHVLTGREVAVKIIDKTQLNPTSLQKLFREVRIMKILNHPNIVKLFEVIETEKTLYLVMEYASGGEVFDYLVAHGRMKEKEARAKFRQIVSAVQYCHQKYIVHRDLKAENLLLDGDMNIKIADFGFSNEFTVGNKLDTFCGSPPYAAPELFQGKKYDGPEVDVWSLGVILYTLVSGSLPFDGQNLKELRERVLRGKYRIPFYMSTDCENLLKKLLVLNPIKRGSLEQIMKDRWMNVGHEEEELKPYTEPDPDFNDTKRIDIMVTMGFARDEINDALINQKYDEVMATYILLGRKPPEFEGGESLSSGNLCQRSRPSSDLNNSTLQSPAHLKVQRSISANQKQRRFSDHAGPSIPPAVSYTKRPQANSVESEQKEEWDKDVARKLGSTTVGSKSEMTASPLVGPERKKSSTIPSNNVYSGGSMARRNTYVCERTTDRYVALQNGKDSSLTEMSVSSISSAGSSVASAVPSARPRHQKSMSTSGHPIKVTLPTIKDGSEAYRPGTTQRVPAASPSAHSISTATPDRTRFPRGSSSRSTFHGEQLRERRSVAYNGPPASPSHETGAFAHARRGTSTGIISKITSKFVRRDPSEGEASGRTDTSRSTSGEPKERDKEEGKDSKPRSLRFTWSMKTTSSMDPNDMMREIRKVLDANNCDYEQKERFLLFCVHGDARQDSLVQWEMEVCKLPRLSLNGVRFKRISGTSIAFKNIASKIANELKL

## CN(C(=O)CN1CCOCC1)c1ccc2sc3c(-c4cccc5c(=O)cc(N6CC7CCC(C6)O7)oc45)cccc3c2c1 [NU5455]
  inhibition at 1 µM: 5.1%
